Assay results as given in US20220041606A1, “POSITIVE ALLOSTERIC MODULATORS OF THE MUSCARINIC ACETYLCHOLINE RECEPTOR M1” (Vanderbilt University, priority 2020, published 2022).

Tests used:
human mAChR M1 [1] = target: T1, human mAChR M1 (Homo sapiens, UniProt P11229); experiment: mAChR M1 cell-based functional assay (calcium mobilization), agonist activity upon compound addition; conditions: CHO-K1 cells expressing hM1; for EC50: compound alone, before acetylcholine addition; for Emax: relative to the maximum for acetylcholine
T1 construct: host or cells: CHO-K1 cells (ATCC), stably transfected using Lipofectamine2000
T1 sequence (P11229 1-460): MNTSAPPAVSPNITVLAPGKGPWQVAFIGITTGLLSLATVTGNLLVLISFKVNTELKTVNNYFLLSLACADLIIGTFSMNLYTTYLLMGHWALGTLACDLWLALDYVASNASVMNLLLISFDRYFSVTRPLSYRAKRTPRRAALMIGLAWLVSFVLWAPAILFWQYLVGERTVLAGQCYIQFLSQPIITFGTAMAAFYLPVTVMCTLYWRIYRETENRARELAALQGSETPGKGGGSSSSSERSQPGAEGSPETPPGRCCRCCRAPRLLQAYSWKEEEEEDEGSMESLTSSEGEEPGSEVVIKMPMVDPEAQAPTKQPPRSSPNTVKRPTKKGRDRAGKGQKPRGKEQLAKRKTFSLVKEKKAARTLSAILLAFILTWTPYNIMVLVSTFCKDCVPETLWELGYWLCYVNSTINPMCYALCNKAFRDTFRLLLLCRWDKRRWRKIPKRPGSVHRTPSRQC
Procedure, shortened: (§1)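 Fluorescence ratio calcium read-out (Fluo-4 AM, FDSS 6000) in human M1-expressing CHO-K1 cells. Agonist activity taken as concentration-dependent rise after compound addition; potentiation as enhancement of a subsequent EC20 acetylcholine challenge. Curves from 11-point threefold dilutions fitted by four-parameter logistic; Emax expressed versus acetylcholine maximum.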

human mAChR M1 [2] = target: T1, human mAChR M1; experiment: mAChR M1 cell-based functional assay (calcium mobilization), PAM activity: increase in the EC20 acetylcholine response; conditions: CHO-K1 cells expressing hM1; potentiation of EC20 acetylcholine response
Procedure, shortened: as §1

SMILES | EC50 (human mAChR M1 [1]) | Emax (human mAChR M1 [1]) | EC50 (human mAChR M1 [2]) | Emax (human mAChR M1 [2])
Cn1cc2c(-c3cc(F)c(Cn4cc(C(=O)N[C@H]5CCCC[C@@H]5O)c5ncncc5c4=O)c(F)c3)cccc2n1 [Compound A88, 6-(2,6-Difluoro-4-(2-methyl-2H-indazol-4-yl)benzyl)-N-((1S,2S)-2-hydroxycyclohexyl)-5-oxo-5,6-dihydropyrido[4,3-d]pyrimidine-8-carboxamide] | > 10 µM | < 5% | ≥ 10000 nM | 40%
Cn1cc(-c2ccc(Cn3cc(C(=O)N[C@H]4CCCC[C@@H]4O)c4ncncc4c3=O)c(F)c2)cn1 [Compound A89, 6-(2-fluoro-4-(1-methyl-1H-pyrazol-4-yl)benzyl)-N-((1S,2S)-2-hydroxycyclohexyl)-5-oxo-5,6-dihydropyrido[4,3-d]pyrimidine-8-carboxamide] | > 10 µM | < 5% | ≥ 10000 nM | 51%
Cn1cc(-c2ccc(Cn3cc(C(=O)N[C@H]4CCOC[C@@H]4O)c4ncncc4c3=O)c(F)c2)cn1 [Compound A90, 6-(2-fluoro-4-(1-methyl-1H-pyrazol-4-yl)benzyl)-N-((3R,4S)-3-hydroxytetrahydro-2H-pyran-4-yl)-5-oxo-5,6-dihydropyrido[4,3-d]pyrimidine-8-carboxamide] | > 10 µM | < 5% | ≥ 10000 nM | 47%
Cn1cc(-c2ccc(Cn3cc(C(=O)N[C@H]4CCCCC[C@@H]4O)c4ncncc4c3=O)c(F)c2)cn1 [Compound A91, 6-(2-fluoro-4-(1-methyl-1H-pyrazol-4-yl)benzyl)-N-((1S,2S)-2-hydroxycycloheptyl)-5-oxo-5,6-dihydropyrido[4,3-d]pyrimidine-8-carboxamide] | > 10 µM | < 5% | ≥ 10000 nM | 34%
Cn1ccc(-c2ccc(Cn3cc(C(=O)N[C@H]4CCOC[C@@H]4O)c4nccn4c3=O)c(F)c2)n1 [Compound B1, 6-(2-fluoro-4-(1-methyl-1H-pyrazol-3-yl)benzyl)-N-((3R,4S)-3-hydroxytetrahydro-2H-pyran-4-yl)-5-oxo-5,6-dihydroimidazo[1,2-c]pyrimidine-8-carboxamide] | 3 µM | 55% | 130 nM | 67%
Cn1ccc(-c2ccc(Cn3cc(C(=O)N[C@H]4CCCC[C@@H]4O)c4nccn4c3=O)c(F)c2)n1 [Compound B2, 6-(2-fluoro-4-(1-methyl-1H-pyrazol-3-yl)benzyl)-N-((1S,2S)-2-hydroxycyclohexyl)-5-oxo-5,6-dihydroimidazo[1,2-c]pyrimidine-8-carboxamide] | 3.7 µM | 60% | 96 nM | 68%
Cn1ccc(-c2ccc(Cn3cc(C(=O)N[C@H]4CCC[C@@H]4O)c4nccn4c3=O)c(F)c2)n1 [Compound B3, 6-(2-fluoro-4-(1-methyl-1H-pyrazol-3-yl)benzyl)-N-((1S,2S)-2-hydroxycyclopentyl)-5-oxo-5,6-dihydroimidazo[1,2-c]pyrimidine-8-carboxamide] | – | 33% | 540 nM | 67%
Cn1ccc(-c2ccc(Cn3cc(C(=O)N[C@@H]4CC[C@H]4O)c4nccn4c3=O)c(F)c2)n1 [Compound B4, 6-(2-fluoro-4-(1-methyl-1H-pyrazol-3-yl)benzyl)-N-((1R,2R)-2-hydroxycyclobutyl)-5-oxo-5,6-dihydroimidazo[1,2-c]pyrimidine-8-carboxamide] | > 10 µM | < 5% | 3220 nM | 52%
Cn1cc(-c2ccc(Cn3cc(C(=O)N[C@H]4CCOC[C@@H]4O)c4nccn4c3=O)c(F)c2)cn1 [Compound B5, 6-(2-fluoro-4-(1-methyl-1H-pyrazol-4-yl)benzyl)-N-((3R,4S)-3-hydroxytetrahydro-2H-pyran-4-yl)-5-oxo-5,6-dihydroimidazo[1,2-c]pyrimidine-8-carboxamide] | 0.15 µM | 62% | 46 nM | 68%

Further lines, results first:

EC50 (human mAChR M1 [1]) | Emax (human mAChR M1 [1]) | EC50 (human mAChR M1 [2]) | Emax (human mAChR M1 [2]) | SMILES
1.54 µM | 63% | 37 nM | 74% | Cn1cc(-c2ccc(Cn3cc(C(=O)N[C@H]4CCCC[C@@H]4O)c4nccn4c3=O)c(F)c2)cn1 [Compound B6, 6-(2-fluoro-4-(1-methyl-1H-pyrazol-4-yl)benzyl)-N-((1S,2S)-2-hydroxycyclohexyl)-5-oxo-5,6-dihydroimidazo[1,2-c]pyrimidine-8-carboxamide]
– | 48% | 240 nM | 73% | Cn1cc(-c2ccc(Cn3cc(C(=O)N[C@H]4CCC[C@@H]4O)c4nccn4c3=O)c(F)c2)cn1 [Compound B7, 6-(2-fluoro-4-(1-methyl-1H-pyrazol-4-yl)benzyl)-N-((1S,2S)-2-hydroxycyclopentyl)-5-oxo-5,6-dihydroimidazo[1,2-c]pyrimidine-8-carboxamide]
– | 29% | 2000 nM | 72% | Cn1cc(-c2ccc(Cn3cc(C(=O)N[C@@H]4CC[C@H]4O)c4nccn4c3=O)c(F)c2)cn1 [Compound B8, 6-(2-fluoro-4-(1-methyl-1H-pyrazol-4-yl)benzyl)-N-((1R,2R)-2-hydroxycyclobutyl)-5-oxo-5,6-dihydroimidazo[1,2-c]pyrimidine-8-carboxamide]
– | 17% | 2060 nM | 61% | Cn1cc(-c2ccc(Cn3cc(C(=O)NC4CC5(COC5)C4)c4nccn4c3=O)c(F)c2)cn1 [Compound B9, 6-(2-fluoro-4-(1-methyl-1H-pyrazol-4-yl)benzyl)-5-oxo-N-(2-oxaspiro[3.3]heptan-6-yl)-5,6-dihydroimidazo[1,2-c]pyrimidine-8-carboxamide]
– | 41% | 480 nM | 60% | Cn1cc(-c2ccc(Cn3cc(C(=O)N[C@H]4CCOC[C@@H]4O)c4nccn4c3=O)cn2)cn1 [Compound B10, N-((3R,4S)-3-hydroxytetrahydro-2H-pyran-4-yl)-6-((6-(1-methyl-1H-pyrazol-4-yl)pyridin-3-yl)methyl)-5-oxo-5,6-dihydroimidazo[1,2-c]pyrimidine-8-carboxamide]
5 µM | 45% | 210 nM | 63% | Cn1cc(-c2ccc(Cn3cc(C(=O)N[C@H]4CCCC[C@@H]4O)c4nccn4c3=O)cn2)cn1 [Compound B11, N-((1S,2S)-2-hydroxycyclohexyl)-6-((6-(1-methyl-1H-pyrazol-4-yl)pyridin-3-yl)methyl)-5-oxo-5,6-dihydroimidazo[1,2-c]pyrimidine-8-carboxamide]
6.02 µM | 55% | 380 nM | 67% | O=C(N[C@H]1CCOC[C@@H]1O)c1cn(Cc2ccc(-n3cccn3)cc2)c(=O)n2ccnc12 [Compound B12, 6-(4-(1H-Pyrazol-1-yl)benzyl)-N-((3R,4S)-3-hydroxytetrahydro-2H-pyran-4-yl)-5-oxo-5,6-dihydroimidazo[1,2-c]pyrimidine-8-carboxamide]
3.17 µM | 55% | 100 nM | 70% | O=C(N[C@H]1CCCC[C@@H]1O)c1cn(Cc2ccc(-n3cccn3)cc2)c(=O)n2ccnc12 [Compound B13, 6-(4-(1H-pyrazol-1-yl)benzyl)-N-((1S,2S)-2-hydroxycyclohexyl)-5-oxo-5,6-dihydroimidazo[1,2-c]pyrimidine-8-carboxamide]
– | 28% | 1330 nM | 70% | O=C(N[C@H]1CCC[C@@H]1O)c1cn(Cc2ccc(-n3cccn3)cc2)c(=O)n2ccnc12 [Compound B14, 6-(4-(1H-pyrazol-1-yl)benzyl)-N-((1S,2S)-2-hydroxycyclopentyl)-5-oxo-5,6-dihydroimidazo[1,2-c]pyrimidine-8-carboxamide]
2.96 µM | 64% | 27 nM | 70% | Cn1cc(-c2ccc(Cn3cc(C(=O)N[C@H]4CCCCC[C@@H]4O)c4nccn4c3=O)c(F)c2)cn1 [Compound B15, 6-(2-fluoro-4-(1-methyl-1H-pyrazol-4-yl)benzyl)-N-((1S,2S)-2-hydroxycycloheptyl)-5-oxo-5,6-dihydroimidazo[1,2-c]pyrimidine-8-carboxamide]
> 10 µM | < 5% | 520 nM | 81% | O=C(N[C@H]1CCCCC[C@@H]1O)c1cn(Cc2ccc(-n3cccn3)cc2)c(=O)n2ccnc12 [Compound B16, 6-(4-(1H-pyrazol-1-yl)benzyl)-N-((1S,2S)-2-hydroxycycloheptyl)-5-oxo-5,6-dihydroimidazo[1,2-c]pyrimidine-8-carboxamide]
> 10 µM | 24% | 470 nM | 83% | O=C(N[C@H]1CCOC[C@@H]1O)c1cn(Cc2ccc(-c3cscn3)cc2)c(=O)n2ccnc12 [Compound B17, N-((3R,4S)-3-hydroxytetrahydro-2H-pyran-4-yl)-5-oxo-6-(4-(thiazol-4-yl)benzyl)-5,6-dihydroimidazo[1,2-c]pyrimidine-8-carboxamide]
